Reference: patent US4550186A, “Binuclear copper (II) carboxylates formed from amine-carboxyboranes” (Duke University, priority 1983, dated 1985)

Columns and labels:
[1] = system: sn-Glycerol-3-phosphate Acyl Transferase; test: In vitro liver enzyme study: sn-glycerol-3-phosphate acyl transferase; format: biochemical, mouse; details: in vitro CF1 liver
Procedure: In vitro enzymatic studies were determined using 10% homogenates of CF1 male mouse liver with 50-200 μM of test drugs. In vivo enzymatic studies were determined using 10% homogenates of liver from CF1 male mice obtained after administering the agents for 16 days at a dose ranging from 2.5-20 mg/kg/day intraperitoneally. The liver homogenates for both in vitro and in vivo studies were prepared in 0.25M sucrose and 0.001M (ethylenedinitrilo)tetraacetic acid. Acetyl coenzyme A synthetase and adenosine triphosphate dependent citrate lyase activities were determined spectrophotometrically at 540 nm as the hydroxylamate of acetyl coenzyme A formed after 30 min at 37° C. Mitochondrial citrate exchange was determined by the procedure of Robinson et al [Eur. J. Biochem., 216, 63 (1970)] using ^14 C-sodium bicarbonate (41 mCi/mmol) incorporated into mitochondrial ^14 C-citrate after isolating rat mitochondria (9000 g×10 min) from the homogenates. The exchanges of the ^14 C-citrate were determined after incubating the mitochondrial fraction which was loaded with labeled citrate and test drugs for 10 min. Then the radioactivity was measured in the mitochondrial and supernantant fractions in scintillation fluid and expressed as a percentage. Cholesterol side chain oxidation was determined by the method of Kritchevsky and Tepper [Artherosclerosis, 18, 93 (1973)] using (26-^14 C) cholesterol (50 mCi/mmol) and mitochondria isolated from rat liver homogenates. […] Fatty acid synthetase activity was determined by the method of Brady et al [J. Biol. Chem., 235, 3093 (1960)] using [2-^14 C] malonyl-coenzyme A (37.5 mCi/mmol) which was incorporated into newly synthesized fatty acids that were extracted with ether and counted. Acyl transferase activity was determined with glycerol-3phosphate [L-2-^3 H(N)] […] HCl and counted. Phosphatidate phosphohydrolase activity was measured as the inorganic phosphate released after 30 min from phosphatidic acid by the method of Mavis et al [J. Lipid Res., 19, 467 (1978)]. […]

Appetite / food intake = details: in vivo
[2] = system: thymidylate monophosphate, diphosphate and triphosphate levels of Ehrlich ascites cells; test: In vivo thymidine incorporation into nucleotide pools; parameters: species or system mouse
Procedure: CF1 male mice (~30 g) were implanted with 2×10^6 Ehrlich ascites tumor cells, intraperitoneally on Day 0. Compound I was suspended by homogenation in 0.05% polysorbate.80-water and administered intraperitoneally at 10 and 20 mg/kg for 9 days to determine its effectiveness for inhibition of tumor growth. Mice were sacrificed on Day 10, and the ascites fluid was collected from the peritoneal cavity. The volume and ascrit (packed cell volume) were determined for each animal and the percent inhibition of tumor growth was calculated. For the metabolic studies, mice were treated on Days 8 and 9 with 10 mg/kg of Compound I, intraperitoneally. The animal was sacrificed on Day 10 and the ascites fluid harvested. The in vitro metabolic studies were performed at […] final concentration of Compound I.
Deoxythymidine as well as deoxythymidylate monophosphate and diphosphate kinase activities were measured spectrophotometrically at 340 nm at 30 min using reduced nicotinamide adenine dinucleotide (0.1 μmole). Thymidine incorporation (6-^3 H - 21.5 Ci/mmol) into nucleotides was measured using the medium of Maley and Ochoa [J. Biol. Chem., 223, 1538 (1958)]. The reaction medium was extracted with ether and the aqueous layer plated on PEI cellulose F plates and eluted with 0.5N formic acid: 0.6M LiCl (1:1). Areas which correlated with Rf values of thymidine, thymidylate monophosphate, diphosphate and triphosphate standards were scraped and counted.

[3] = 10 mg/kg/day I.P. on Days 8 and 9

Substance: {Cu[(CH3)3 N.BH2 CO2 ]2.(CH3)3 N.BH2 COOH} [Compound I]
- sn-Glycerol-3-phosphate Acyl Transferase ([1]; 50 μM): 108 ± 6 Percent Control
- sn-Glycerol-3-phosphate Acyl Transferase ([1]; 100 μM): 92 ± 8 Percent Control
- sn-Glycerol-3-phosphate Acyl Transferase ([1]; 200 μM): 89 ± 6 Percent Control
- Appetite of the animal (Appetite / food intake): reduced
- 3H-Thymidine incorporation into thymidylate monophosphate pool reduced [2]: 57%
- TDP pool reduced [2]: 19%
- TTP pool reduced [2]: 10%
- Thymidylate diphosphate levels [2, 3]: 89 ± 11 % Control
- Thymidylate monophosphate levels [2, 3]: 43 ± 6 % Control
- Thymidylate triphosphate levels [2, 3]: 90 ± 10 % Control
